Measurements reported in patent US7553858B2, “Combination of flupirtine and tramadol” (priority 2003, dated 2009).
Read-outs that look alike come from different tables or passages of the source. Marks after values point to notes of the source that are not given here.

What was measured:
[1] = tested on: acetylcholine-induced writhing; assay: Acetylcholine-induced writhing in mice; type: in vivo; conditions: Mus musculus
Procedure: Male mice weighing 22-24 g were maintained in groups of 4 at standard conditions (temperature 22±1° C., humidity: 40-50%, dark-light rhythm: 12/12 h) with food and water freely available.
Abdominal contractions (writhings) were induced by intraperitoneal (i.p.) injection of acetylcholine (ACh) (chloride, 5.5. mg/kg) in a volume of 10 ml/kg. Immediately thereafter, mice were placed in a plastic cage and the number of abdominal contractions (writhes) was counted for 10 min. The total number of abdominal contractions per animal and number of animals with contractions were calculated.
Drugs were prepared daily. All compounds were given orally. Tramadol hydrochloride and flupirtine maleate were administered 30 min before acetylcholine injection.
ED50 values were estimated either by the ratio of animals protected from writhings to the number of animals in groups or by the mean number of writhes in each group of animals. The values were calculated by using linear regression. The statistical analysis of differences between calculated and measured effects was carried out by the Kruscall-Wallis test. Asterisks (*) indicate the significance level p<0.05.

[2] = tested on: seizures induced by subconvulsive pentetrazol doses; assay: Submaximal pentetrazol-induced seizures in mice; conditions: for Intensity (scored) of seizures / Number of animals with seizures: n = 10
Procedure: Male mice weighing 22-24 g were used. Animals housed in groups of 4 at standard conditions (temperature 22° C., humidity 40-60%) with food and water freely available. Lights were on from 06.00 a.m. to 06.00 p.m. The experiments were approved by the Animal Health Committee of the University which is responsible for the care and proper use of experimental animals.
Seizures were induced by intraperitoneal administration of pentetrazol at the subconvulsive dose of 30 mg/kg. The latency of the first seizure reaction, the seizure intensity and the number of animals with seizures were calculated for the first 10 min after i.p. injection of pentetrazol. Tramadol (hydrochloride) and flupirtine (maleate) were given intraperitoneally (15 min before pentetrazol administration). Drugs were prepared daily in 0.9% saline.

[3] = tested on: skeletal muscle tone; assay: Skeletal muscle tone in conscious rats; type: in vivo, Sprague-Dawley rats
Procedure: The experimental set-up has been described in all details in a former publication (Nickel et al. Arzn. Forsch./Drug Res. 1997; 47; 1081-6). Briefly, the measurement of skeletal muscle tone was done by recording successively the resistance of flexor and extensor muscles which counteracted the forced straightening and bending of the foot in the ankle joint. Pressure changes induced by the movements of the foot were continuously registered. Signals were analyzed on a personal computer. A corresponding computer program calculated the resistance values of flexors and extensors of the foot over 10 min recording periods.
Male Sprague-Dawley rats weighing 200-220 g were used.
Drugs (tramadol hydrochloride, flupirtine maleate) were prepared in physiological saline daily and given intraperitoneally.
The statistical analysis of differences between calculated and measured effects was carried out by the one-way ANOVA. Asterisks (*) indicate the significance level p<0.01.

[4] = tested on: tramadol-induced emesis; assay: Emetic response in conscious mongrel dogs; type: in vivo; conditions: Tramadol 14 mg/kg i.v., first 60 min, n = 5
Procedure: Mongrel dogs of both sexes weighing up to 15 kg were used. They were deprived of food overnight but allowed water ad libitum. Test compounds were administered to conscious animals by a slow infusion via the saphenous vein. Emetic responses (retches, strong salivation vomits with output) were monitored 60 min following drug administration (Borison and Wang, 1953). All dogs received 14 mg/kg tramadol i.v. repeatedly with an interval of one week. Positive responder dogs were selected and used in further experiments.

[5] = Tramadol 20 mg/kg i.p., 15 min before pentetrazol 30 mg/kg i.p.
[6] = Tramadol 40 mg/kg i.p., pentetrazol 30 mg/kg i.p.
[7] = Flupirtine 10 mg/kg i.p., pentetrazol 30 mg/kg i.p.
[8] = Flupirtine 20 mg/kg i.p., pentetrazol 30 mg/kg i.p.

COc1cccc([C@@]2(O)CCCC[C@H]2CN(C)C)c1 (racemic) [Tramadol, trans-(+/−)-2-[(Dimethylamino)methyl]-1-(3-methoxyphenyl)cyclohexanol]
ED50 ([1]; read-out: oral ED50-values calculated on the basis of animals protected from writhings): 4.87 mg/kg
ED50 ([1]; read-out: oral ED50-values calculated on the basis of reduction of number of writhings): 4.14 mg/kg
Intensity (scored) of seizures [2, 5]: 1.70*
Number of animals with seizures [2, 5]: 8*
Intensity (scored) of seizures [2, 6]: 3.00*
Number of animals with seizures [2, 6]: 10*
effect on acute seizures induced by subconvulsive doses of pentetrazol (in words) ([2]; mice, i.p.): proconvulsive effects
Changes in muscle tonus (in % compared to placebo) ([3]; Tramadol 20 mg/kg i.p.): +12%
Changes in muscle tonus (in % compared to placebo) ([3]; Tramadol 40 mg/kg i.p.): +47%*
Emetic response, % of dogs [4]: 100%

CCOC(=O)Nc1ccc(NCc2ccc(F)cc2)nc1N [Flupirtine]
ED50 ([1]; mice, oral, 30 min before ACh 5.5 mg/kg i.p., read-out: oral ED50-values calculated on the basis of animals protected from writhings): 27.2 mg/kg
ED50 ([1]; mice, oral, 30 min before ACh 5.5 mg/kg i.p., read-out: oral ED50-values calculated on the basis of reduction of number of writhings): 21 mg/kg
Intensity (scored) of seizures [2, 7]: 0.20
Number of animals with seizures [2, 7]: 2
Intensity (scored) of seizures [2, 8]: 0.10
Number of animals with seizures [2, 8]: 1
proconvulsive activity of tramadol, in the combination (in words) ([2]; mice, i.p., flupirtine with tramadol): almost completely attenuated
tramadol-induced skeletal muscle rigidity (in words) ([3]; Flupirtine 5-10 mg/kg i.p.): completely abolished
